Reference: ChEMBL document CHEMBL4507268 (2021)

How the values were obtained:
Details in all cases: Compound concentration 1.0 uM
[1] = target: Vascular endothelial growth factor receptor 2 (Homo sapiens) (UniProt P35968)
[2] = target: Interleukin-1 receptor-associated kinase 1 (Homo sapiens) (UniProt P51617)
[3] = target: PI3K p110 beta/p85 alpha (Homo sapiens) (UniProt P27986+P42338)
[4] = target: Tau-tubulin kinase 1 (Homo sapiens) (UniProt Q5TCY1)
[5] = target: T1, Dual specificity mitogen-activated protein kinase kinase 6 (Homo sapiens) (UniProt P52564)
T1 sequence (whole entry): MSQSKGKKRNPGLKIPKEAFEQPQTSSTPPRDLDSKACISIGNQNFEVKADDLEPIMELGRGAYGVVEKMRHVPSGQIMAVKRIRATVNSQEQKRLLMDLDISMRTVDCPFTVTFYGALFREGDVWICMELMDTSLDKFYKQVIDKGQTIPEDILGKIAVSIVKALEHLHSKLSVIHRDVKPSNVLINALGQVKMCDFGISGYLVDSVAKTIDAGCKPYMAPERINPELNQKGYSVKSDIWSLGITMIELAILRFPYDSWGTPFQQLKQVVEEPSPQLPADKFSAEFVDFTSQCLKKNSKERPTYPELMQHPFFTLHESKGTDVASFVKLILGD

[6] = target: Serine/threonine-protein kinase SBK1 (Homo sapiens) (UniProt Q52WX2)
[7] = target: DNA-dependent protein kinase catalytic subunit (Homo sapiens) (UniProt P78527)
[8] = target: Calcium/calmodulin-dependent protein kinase kinase 1 (Homo sapiens) (UniProt Q8N5S9)
[9] = target: Cyclin-dependent kinase-like 4 (Homo sapiens) (UniProt Q5MAI5)
[10] = target: ATR/ATRIP (Homo sapiens) (UniProt Q13535+Q8WXE1)
[11] = target: Tyrosine-protein kinase receptor UFO (Homo sapiens) (UniProt P30530)
Sequence of Tyrosine-protein kinase receptor UFO (Homo sapiens) (P30530 whole entry): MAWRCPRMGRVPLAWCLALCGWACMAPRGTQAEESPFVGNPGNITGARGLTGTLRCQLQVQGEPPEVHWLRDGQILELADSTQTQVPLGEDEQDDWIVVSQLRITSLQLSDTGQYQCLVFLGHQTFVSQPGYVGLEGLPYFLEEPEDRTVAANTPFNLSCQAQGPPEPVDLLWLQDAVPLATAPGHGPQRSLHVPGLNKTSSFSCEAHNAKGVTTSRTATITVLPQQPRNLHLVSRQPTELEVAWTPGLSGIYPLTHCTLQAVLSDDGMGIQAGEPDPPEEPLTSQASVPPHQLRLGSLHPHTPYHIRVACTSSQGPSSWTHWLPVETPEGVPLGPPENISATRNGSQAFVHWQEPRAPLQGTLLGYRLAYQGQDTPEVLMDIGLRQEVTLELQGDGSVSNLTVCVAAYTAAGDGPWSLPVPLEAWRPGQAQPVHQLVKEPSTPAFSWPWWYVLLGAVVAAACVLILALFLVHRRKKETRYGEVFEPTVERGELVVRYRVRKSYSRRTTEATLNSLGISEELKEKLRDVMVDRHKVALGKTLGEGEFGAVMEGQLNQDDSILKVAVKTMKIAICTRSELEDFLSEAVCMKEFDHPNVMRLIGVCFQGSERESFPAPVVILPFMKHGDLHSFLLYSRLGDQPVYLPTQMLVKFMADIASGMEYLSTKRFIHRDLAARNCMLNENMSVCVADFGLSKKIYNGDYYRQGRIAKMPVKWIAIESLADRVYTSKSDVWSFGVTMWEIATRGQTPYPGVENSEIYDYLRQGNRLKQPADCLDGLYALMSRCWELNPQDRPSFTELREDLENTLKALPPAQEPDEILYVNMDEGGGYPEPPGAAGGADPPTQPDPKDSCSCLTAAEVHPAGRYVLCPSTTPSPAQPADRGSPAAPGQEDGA

[12] = target: Mitogen-activated protein kinase kinase kinase 9 (Homo sapiens) (UniProt P80192)
Sequence of Mitogen-activated protein kinase kinase kinase 9 (Homo sapiens) (P80192 whole entry, looked up): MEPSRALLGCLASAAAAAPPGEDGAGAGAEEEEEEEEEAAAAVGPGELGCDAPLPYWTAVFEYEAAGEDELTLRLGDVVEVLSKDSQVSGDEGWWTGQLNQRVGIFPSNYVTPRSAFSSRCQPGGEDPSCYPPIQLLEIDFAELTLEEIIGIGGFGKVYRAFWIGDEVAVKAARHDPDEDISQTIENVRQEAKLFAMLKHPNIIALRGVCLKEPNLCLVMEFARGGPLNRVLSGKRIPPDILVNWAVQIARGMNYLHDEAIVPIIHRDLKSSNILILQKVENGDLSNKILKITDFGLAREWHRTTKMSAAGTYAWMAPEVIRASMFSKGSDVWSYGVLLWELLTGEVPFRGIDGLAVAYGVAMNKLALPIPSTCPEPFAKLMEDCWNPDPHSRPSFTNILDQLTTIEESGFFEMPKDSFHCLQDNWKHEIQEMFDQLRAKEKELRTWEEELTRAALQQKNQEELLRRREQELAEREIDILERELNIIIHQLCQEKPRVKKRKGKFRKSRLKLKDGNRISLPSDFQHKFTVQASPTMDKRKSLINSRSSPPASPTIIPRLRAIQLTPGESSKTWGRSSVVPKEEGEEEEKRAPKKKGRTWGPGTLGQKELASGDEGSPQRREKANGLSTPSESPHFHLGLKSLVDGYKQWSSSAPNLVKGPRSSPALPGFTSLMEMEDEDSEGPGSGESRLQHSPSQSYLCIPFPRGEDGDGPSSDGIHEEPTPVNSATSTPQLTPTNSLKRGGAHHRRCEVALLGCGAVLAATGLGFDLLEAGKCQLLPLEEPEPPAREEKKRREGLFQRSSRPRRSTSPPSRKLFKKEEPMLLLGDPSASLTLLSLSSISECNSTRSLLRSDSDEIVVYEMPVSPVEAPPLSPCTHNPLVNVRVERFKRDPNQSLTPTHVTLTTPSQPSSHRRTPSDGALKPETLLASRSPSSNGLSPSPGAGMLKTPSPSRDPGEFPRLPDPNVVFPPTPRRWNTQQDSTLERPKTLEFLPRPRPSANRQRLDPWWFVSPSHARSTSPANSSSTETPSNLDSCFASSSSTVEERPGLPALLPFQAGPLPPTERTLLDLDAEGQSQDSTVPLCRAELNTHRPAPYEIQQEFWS

[13] = target: Cyclin-dependent kinase 2/cyclin A (Homo sapiens) (UniProt P24941+P20248+P78396)
[14] = target: Tyrosine-protein kinase Lck (Homo sapiens) (UniProt P06239)
[15] = target: Tyrosine-protein kinase JAK2 (Homo sapiens) (UniProt O60674)
[16] = target: Phosphatidylinositol 5-phosphate 4-kinase type-2 alpha (Homo sapiens) (UniProt P48426)
[17] = target: T2, NUAK family SNF1-like kinase 2 (Homo sapiens) (UniProt Q9H093)
T2 sequence (whole entry): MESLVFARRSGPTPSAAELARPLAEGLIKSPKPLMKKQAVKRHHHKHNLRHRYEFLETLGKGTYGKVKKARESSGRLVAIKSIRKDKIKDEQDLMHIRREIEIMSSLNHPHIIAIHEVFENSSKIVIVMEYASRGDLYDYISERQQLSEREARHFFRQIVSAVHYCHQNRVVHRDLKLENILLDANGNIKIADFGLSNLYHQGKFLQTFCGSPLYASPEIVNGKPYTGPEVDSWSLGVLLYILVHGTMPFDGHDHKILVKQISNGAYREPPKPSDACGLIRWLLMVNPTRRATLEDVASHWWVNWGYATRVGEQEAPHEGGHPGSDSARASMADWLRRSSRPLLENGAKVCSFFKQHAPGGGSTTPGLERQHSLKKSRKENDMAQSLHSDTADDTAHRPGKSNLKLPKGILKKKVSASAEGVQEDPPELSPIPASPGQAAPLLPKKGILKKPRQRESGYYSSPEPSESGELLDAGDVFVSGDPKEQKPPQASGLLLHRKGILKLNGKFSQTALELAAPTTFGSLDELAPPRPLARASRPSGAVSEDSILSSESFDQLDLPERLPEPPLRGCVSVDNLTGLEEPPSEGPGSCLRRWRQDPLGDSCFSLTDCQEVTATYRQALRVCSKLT

[18] = target: Cyclin-dependent kinase 13/Cyclin-K (Homo sapiens) (UniProt Q14004+O75909)
[19] = target: Calcium/calmodulin-dependent protein kinase type 1D (Homo sapiens) (UniProt Q8IU85)
[20] = target: Dual specificity protein kinase CLK3 (Homo sapiens) (UniProt P49761)
Sequence of Dual specificity protein kinase CLK3 (Homo sapiens) (P49761 whole entry, looked up): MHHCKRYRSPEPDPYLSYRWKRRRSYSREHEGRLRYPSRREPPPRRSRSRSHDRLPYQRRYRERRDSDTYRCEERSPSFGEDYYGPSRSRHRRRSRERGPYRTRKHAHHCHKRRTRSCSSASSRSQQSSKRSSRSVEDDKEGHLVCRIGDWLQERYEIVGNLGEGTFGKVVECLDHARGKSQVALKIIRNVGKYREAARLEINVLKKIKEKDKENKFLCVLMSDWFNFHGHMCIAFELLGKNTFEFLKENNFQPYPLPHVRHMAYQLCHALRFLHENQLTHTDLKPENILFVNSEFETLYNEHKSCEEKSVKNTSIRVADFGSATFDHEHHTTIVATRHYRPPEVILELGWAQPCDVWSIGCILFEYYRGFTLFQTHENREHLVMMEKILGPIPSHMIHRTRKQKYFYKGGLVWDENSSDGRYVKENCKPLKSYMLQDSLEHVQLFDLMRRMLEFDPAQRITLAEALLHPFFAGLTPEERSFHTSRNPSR

[21] = target: Death-associated protein kinase 3 (Homo sapiens) (UniProt O43293)
[22] = target: Calcium/calmodulin-dependent protein kinase type II subunit beta (Homo sapiens) (UniProt Q13554)
[23] = target: Homeodomain-interacting protein kinase 1 (Homo sapiens) (UniProt Q86Z02)
[24] = target: Tyrosine-protein kinase ABL2 (Homo sapiens) (UniProt P42684)
[25] = target: Cyclin-dependent kinase 14/Cyclin-Y (Homo sapiens) (UniProt O94921+Q8ND76)
[26] = target: Non-receptor tyrosine-protein kinase TYK2 (Homo sapiens) (UniProt P29597)
[27] = target: cAMP-dependent protein kinase catalytic subunit beta (Homo sapiens) (UniProt P22694)

Measured: % residual kinase activity

Sequence of PI3K p110 beta/p85 alpha (Homo sapiens) (P27986 2-724 limits assumed): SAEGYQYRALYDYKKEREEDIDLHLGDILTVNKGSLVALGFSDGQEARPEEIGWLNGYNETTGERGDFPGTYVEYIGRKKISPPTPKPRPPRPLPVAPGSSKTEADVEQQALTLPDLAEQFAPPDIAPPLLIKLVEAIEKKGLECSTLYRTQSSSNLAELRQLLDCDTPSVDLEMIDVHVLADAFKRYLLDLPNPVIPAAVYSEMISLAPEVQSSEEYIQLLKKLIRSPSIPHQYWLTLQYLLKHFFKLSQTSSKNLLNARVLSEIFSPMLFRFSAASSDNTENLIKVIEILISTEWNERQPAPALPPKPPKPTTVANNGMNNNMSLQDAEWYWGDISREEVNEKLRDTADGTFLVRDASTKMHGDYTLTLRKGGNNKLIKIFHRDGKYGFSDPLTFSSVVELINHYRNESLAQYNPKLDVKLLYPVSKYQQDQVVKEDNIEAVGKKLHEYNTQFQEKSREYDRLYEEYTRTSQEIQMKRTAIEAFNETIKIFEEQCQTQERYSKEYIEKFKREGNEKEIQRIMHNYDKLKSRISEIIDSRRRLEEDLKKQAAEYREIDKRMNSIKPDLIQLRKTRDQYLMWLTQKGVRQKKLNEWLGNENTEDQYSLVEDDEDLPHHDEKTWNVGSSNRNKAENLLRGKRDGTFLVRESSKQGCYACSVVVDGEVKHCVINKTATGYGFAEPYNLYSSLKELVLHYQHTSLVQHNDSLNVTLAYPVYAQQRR
Sequence of PI3K p110 beta/p85 alpha (Homo sapiens) (P42338 whole entry partner): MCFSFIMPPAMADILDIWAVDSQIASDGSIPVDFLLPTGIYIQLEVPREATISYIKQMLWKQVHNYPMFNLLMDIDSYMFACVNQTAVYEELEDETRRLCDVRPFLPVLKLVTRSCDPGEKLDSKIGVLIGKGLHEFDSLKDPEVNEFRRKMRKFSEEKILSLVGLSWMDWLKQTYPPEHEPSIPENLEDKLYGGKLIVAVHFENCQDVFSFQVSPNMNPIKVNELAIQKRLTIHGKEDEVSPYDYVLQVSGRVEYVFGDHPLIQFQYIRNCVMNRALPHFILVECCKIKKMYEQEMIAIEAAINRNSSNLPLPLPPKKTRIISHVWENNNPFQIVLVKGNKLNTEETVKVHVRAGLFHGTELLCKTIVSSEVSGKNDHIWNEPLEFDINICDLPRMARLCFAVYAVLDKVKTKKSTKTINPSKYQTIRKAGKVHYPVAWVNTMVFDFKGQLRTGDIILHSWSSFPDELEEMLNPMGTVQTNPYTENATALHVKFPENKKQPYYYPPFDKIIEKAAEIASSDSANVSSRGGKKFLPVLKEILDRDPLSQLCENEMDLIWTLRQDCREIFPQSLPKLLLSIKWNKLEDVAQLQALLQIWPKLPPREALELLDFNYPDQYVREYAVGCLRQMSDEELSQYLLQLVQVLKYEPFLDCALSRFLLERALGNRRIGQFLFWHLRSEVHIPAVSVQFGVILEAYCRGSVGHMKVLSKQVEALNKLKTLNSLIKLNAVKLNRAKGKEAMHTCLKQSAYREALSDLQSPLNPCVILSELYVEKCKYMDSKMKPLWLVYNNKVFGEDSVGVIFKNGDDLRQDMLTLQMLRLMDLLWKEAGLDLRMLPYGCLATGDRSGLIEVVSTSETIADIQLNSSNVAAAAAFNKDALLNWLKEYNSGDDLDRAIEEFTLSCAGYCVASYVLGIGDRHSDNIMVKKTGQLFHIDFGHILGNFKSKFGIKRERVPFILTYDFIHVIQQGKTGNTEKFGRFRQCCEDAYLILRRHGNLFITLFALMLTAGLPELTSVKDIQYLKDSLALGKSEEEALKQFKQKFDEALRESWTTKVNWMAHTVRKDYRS
Sequence of Interleukin-1 receptor-associated kinase 1 (Homo sapiens) (P51617 whole entry, looked up): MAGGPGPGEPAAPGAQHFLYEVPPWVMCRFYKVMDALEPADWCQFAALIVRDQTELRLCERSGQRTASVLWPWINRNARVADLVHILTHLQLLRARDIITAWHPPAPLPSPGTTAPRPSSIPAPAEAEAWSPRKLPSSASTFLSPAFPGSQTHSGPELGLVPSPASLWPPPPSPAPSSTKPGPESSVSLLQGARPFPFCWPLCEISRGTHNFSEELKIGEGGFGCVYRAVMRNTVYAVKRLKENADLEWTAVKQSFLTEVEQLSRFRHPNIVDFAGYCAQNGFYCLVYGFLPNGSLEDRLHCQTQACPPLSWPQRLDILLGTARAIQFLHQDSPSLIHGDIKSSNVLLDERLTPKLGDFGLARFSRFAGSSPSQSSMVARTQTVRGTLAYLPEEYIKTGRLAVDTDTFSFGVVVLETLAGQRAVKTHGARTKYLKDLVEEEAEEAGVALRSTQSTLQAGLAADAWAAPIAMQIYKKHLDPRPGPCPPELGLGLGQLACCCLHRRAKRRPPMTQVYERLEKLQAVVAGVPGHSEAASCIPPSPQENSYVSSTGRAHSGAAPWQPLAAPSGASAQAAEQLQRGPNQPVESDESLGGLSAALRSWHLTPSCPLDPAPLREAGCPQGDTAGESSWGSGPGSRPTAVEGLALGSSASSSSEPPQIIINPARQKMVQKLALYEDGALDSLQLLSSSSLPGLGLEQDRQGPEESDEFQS

CN1CCN(c2cnc3c(C4CCN(C(=O)c5ccc(OC(F)(F)F)cc5N)CC4)ncnc3c2)CC1 [BAY-885]
inactive: [1] 100% | [2] 110% | [3] 98% | [4] 95% | [5] 99% | [6] 96% | [7] 102% | [8] 102% | [9] 103% | [10] 100% | [11] 91% | [12] 108% | [13] 105% | [14] 98% | [15] 100% | [16] 95% | [17] 111% | [18] 109% | [19] 94% | [20] 111% | [21] 111% | [22] 103% | [23] 116% | [24] 93% | [25] 117% | [26] 110% | [27] 89%
